# Results reported in article PMC6271077, “Synthesis, Anticancer and Antibacterial Activity of Salinomycin N-Benzyl Amides” (Molecules, 2014).
# Legend:
# [1] = system: MRSA 514/11; experiment: MIC microdilution, hospital MRSA; format: cell-based; conditions: Staphylococcus aureus; hospital MRSA strain 514/11; read-out: MIC
# [2] = system: MRSE 466/11; experiment: MIC microdilution, hospital MRSE; format: cell-based; conditions: Staphylococcus epidermidis; hospital MRSE strain 466/11; read-out: MIC
# [3] = system: S. epidermidis ATCC 12228; experiment: MIC microdilution; format: cell-based; conditions: Staphylococcus epidermidis, ATCC12228; S. epidermidis ATCC 12228; 18 h, 35 °C; read-out: MIC
# [4] = system: MRSE 469/11; experiment: MIC microdilution, hospital MRSE; format: cell-based; conditions: Staphylococcus epidermidis; hospital MRSE strain 469/11; read-out: MIC
# [5] = system: S. aureus ATCC 29213; experiment: Disc-diffusion (GIZ); format: cell-based; conditions: 18 h, 35 °C, un: unmeasurable
# Excerpt: (§1) Microorganisms used in this study were as follows: Gram-positive cocci: S. aureus NCTC 4163, S. aureus ATCC 25923, S. aureus ATCC 6538, S. aureus ATCC 29213, S. epidermidis ATCC 12228, S. epidermidis ATCC 35984, Gram-negative rods: E. coli ATCC 10538, E. coli ATCC 25922, E. coli NCTC 8196, P. vulgaris NCTC 4635, P. aeruginosa ATCC 15442, P. aeruginosa NCTC 6749, P. aeruginosa ATCC 27863, B. bronchiseptica ATCC 4617 and yeasts: C. albicans ATCC 10231, C. albicans ATCC 90028, C. parapsilosis ATCC 22019. The other microorganisms used were obtained from the collection of the Department of Pharmaceutical Microbiology, Medical University of Warsaw, Poland.
# (§2) Antibacterial activity was examined by the disc-diffusion method under standard conditions using Mueller-Hinton II agar medium (Becton Dickinson, Heidelberg, Germany) according to CLSI (previously NCCLS) guidelines. Antifungal activities were assessed using Muellere Hinton agar + 2% glucose and 0.5 mg/mL Methylene Blue Dye Medium.
# (§3) Sterile filter paper discs (9 mm diameter, Whatman No. 3 chromatography paper) were dripped with tested compound solutions (in EtOH) to load […] of a given compound per disc. Dry discs were placed on the surface of appropriate agar medium. The results (diameter of the growth inhibition zone, GIZ) were read after 18 h of incubation at 35 °C.
# [6] = system: S. aureus ATCC 4163; experiment: Disc-diffusion (GIZ); format: cell-based; conditions: 18 h, 35 °C, un: unmeasurable
# Excerpt: as §1, §2, §3
# [7] = system: S. aureus ATCC 6538; experiment: Disc-diffusion (GIZ); format: cell-based; conditions: 18 h, 35 °C, un: unmeasurable
# Excerpt: as §1, §2, §3
# [8] = system: S. aureus ATCC 25923; experiment: Disc-diffusion (GIZ); format: cell-based; conditions: 18 h, 35 °C, un: unmeasurable
# Excerpt: as §1, §2, §3
# [9] = system: S. epidermidis ATCC 35984; experiment: Disc-diffusion (GIZ); format: cell-based; conditions: 18 h, 35 °C, un: unmeasurable
# Excerpt: as §1, §2, §3
# [10] = system: S. epidermidis ATCC 12228; experiment: Disc-diffusion (GIZ); format: cell-based; conditions: 18 h, 35 °C, un: unmeasurable
# Excerpt: as §1, §2, §3
# [11] = system: MRSA 537/12; experiment: MIC microdilution, hospital MRSA; format: cell-based; conditions: Staphylococcus aureus; hospital MRSA strain 537/12; read-out: MIC
# [12] = system: MRSE 461/11; experiment: MIC microdilution, hospital MRSE; format: cell-based; conditions: Staphylococcus epidermidis; hospital MRSE strain 461/11; read-out: MIC
# [13] = system: MRSA 462/11; experiment: MIC microdilution, hospital MRSA; format: cell-based; conditions: Staphylococcus aureus; hospital MRSA strain 462/11; read-out: MIC
# [14] = system: MRSA 456/11; experiment: MIC microdilution, hospital MRSA; format: cell-based; conditions: Staphylococcus aureus; hospital MRSA strain 456/11; read-out: MIC
# [15] = system: S. aureus ATCC 29213; experiment: MIC microdilution; format: cell-based; conditions: Staphylococcus aureus, ATCC29213; S. aureus ATCC 29213; 18 h, 35 °C; read-out: MIC
# [16] = system: S. aureus ATCC 4163; experiment: MIC microdilution; format: cell-based; conditions: Staphylococcus aureus, ATCC4163; S. aureus ATCC 4163; 18 h, 35 °C; read-out: MIC
# [17] = system: S. aureus ATCC 6538; experiment: MIC microdilution; format: cell-based; conditions: Staphylococcus aureus, ATCC6538; S. aureus ATCC 6538; 18 h, 35 °C; read-out: MIC
# [18] = system: MRSE 488/11; experiment: MIC microdilution, hospital MRSE; format: cell-based; conditions: Staphylococcus epidermidis; hospital MRSE strain 488/11; read-out: MIC
# [19] = system: MRSA 573/12; experiment: MIC microdilution, hospital MRSA; format: cell-based; conditions: Staphylococcus aureus; hospital MRSA strain 573/12; read-out: MIC
# [20] = system: MRSA 522/12; experiment: MIC microdilution, hospital MRSA; format: cell-based; conditions: Staphylococcus aureus; hospital MRSA strain 522/12; read-out: MIC
# [21] = system: MRSA 585/12; experiment: MIC microdilution, hospital MRSA; format: cell-based; conditions: Staphylococcus aureus; hospital MRSA strain 585/12; read-out: MIC
# [22] = system: MRSA 572/12; experiment: MIC microdilution, hospital MRSA; format: cell-based; conditions: Staphylococcus aureus; hospital MRSA strain 572/12; read-out: MIC
# [23] = system: MRSE 489/11; experiment: MIC microdilution, hospital MRSE; format: cell-based; conditions: Staphylococcus epidermidis; hospital MRSE strain 489/11; read-out: MIC
# [24] = system: MRSE 467/11; experiment: MIC microdilution, hospital MRSE; format: cell-based; conditions: Staphylococcus epidermidis; hospital MRSE strain 467/11; read-out: MIC
# [25] = system: MRSE 459/11; experiment: MIC microdilution, hospital MRSE; format: cell-based; conditions: Staphylococcus epidermidis; hospital MRSE strain 459/11; read-out: MIC
# [26] = system: MRSA 452/11; experiment: MIC microdilution, hospital MRSA; format: cell-based; conditions: Staphylococcus aureus; hospital MRSA strain 452/11; read-out: MIC
# [27] = system: MRSA 586/12; experiment: MIC microdilution, hospital MRSA; format: cell-based; conditions: Staphylococcus aureus; hospital MRSA strain 586/12; read-out: MIC
# [28] = system: MRSA; experiment: MIC microdilution, MRSA strains overall (range given); format: cell-based, Staphylococcus aureus; conditions: hospital MRSA strains
# [29] = system: MRSE 468/11; experiment: MIC microdilution, hospital MRSE; format: cell-based; conditions: Staphylococcus epidermidis; hospital MRSE strain 468/11; read-out: MIC
smiles,measurement,setting,value
"O=C(O)c1cn(C2CC2)c2cc(N3CCNCC3)c(F)cc2c1=O [ciprofloxacin, reference compound]",MIC,[1],32 µg/mL
same,MIC,[2],2 µg/mL
same,MIC,[3],0.25 µg/mL
same,MIC,[4],8 µg/mL
same,GIZ,[5],22 mm
same,GIZ,[6],26 mm
same,GIZ,[7],28 mm
same,GIZ,[8],26 mm
same,GIZ,[9],32 mm
same,GIZ,[10],30 mm
same,MIC,[11],64 µg/mL
same,MIC,[12],0.25 µg/mL
same,MIC,[13],64 µg/mL
same,MIC,[14],32 µg/mL
same,MIC,[15],0.5 µg/mL
same,MIC,[16],0.25 µg/mL
same,MIC,[17],0.25 µg/mL
same,MIC,[18],16 µg/mL
same,MIC,[19],32 µg/mL
same,MIC,[20],32 µg/mL
same,MIC,[21],64 µg/mL
same,MIC,[22],64 µg/mL
same,MIC,[23],0.25 µg/mL
same,MIC,[24],16 µg/mL
same,MIC,[25],16 µg/mL
same,MIC,[26],32 µg/mL
same,MIC,[27],64 µg/mL
same,MIC (range over MRSA strains),[28],32 to 64 µg/mL
same,MIC,[29],16 µg/mL
